Assay results: patent US20120190751A1, “COMPOUNDS FOR TREATMENTS OF INFLAMMATION” (ANA-MAR AB, priority 2009, published 2012)
“Also recorded” adds a separate entry of the source.

How the values were obtained:
5-HT1D receptor = 5-HT1D receptor (Homo sapiens, UniProt P28221); assay: Radio-ligand binding assay 5-HT1D; settings: 10 μM compound; [3H]-5-CT 2 nM; human cortex
Experimental: (§1) Determination of binding affinities for various 5-HT receptors was performed by radio-ligand binding assays. Briefly, tissue or cells expressing the receptor of interest were suspended in incubation buffer and radio-ligands and 10 μM N-(2-chloro-3,4-dimethoxybenzylidene-amino)guanidine were added. After incubation, separation of bound and free radio-ligand was done by multiple washings with buffer.
(§2) The results were presented as the percent inhibition of specific binding. The IC50 values were determined by a non-linear least square regression analysis using MathIQ™ (ID Business Solution Ltd., UK). The inhibition constants (Ki) were calculated using the equation of Cheng and Prusoff (Cheng Y, Prusoff W H, Biochem. Pharmacol. 22:3099-3108, 1973) using the observed IC50 of the tested compound, the concentration of radioligand employed in the assay and the historical values for the KD of the ligand.

5-HT2C receptor = target: T1, 5-HT2C receptor (Homo sapiens, UniProt P28335); assay: Radio-ligand binding assay 5-HT2C
T1 sequence (P28335 33-458): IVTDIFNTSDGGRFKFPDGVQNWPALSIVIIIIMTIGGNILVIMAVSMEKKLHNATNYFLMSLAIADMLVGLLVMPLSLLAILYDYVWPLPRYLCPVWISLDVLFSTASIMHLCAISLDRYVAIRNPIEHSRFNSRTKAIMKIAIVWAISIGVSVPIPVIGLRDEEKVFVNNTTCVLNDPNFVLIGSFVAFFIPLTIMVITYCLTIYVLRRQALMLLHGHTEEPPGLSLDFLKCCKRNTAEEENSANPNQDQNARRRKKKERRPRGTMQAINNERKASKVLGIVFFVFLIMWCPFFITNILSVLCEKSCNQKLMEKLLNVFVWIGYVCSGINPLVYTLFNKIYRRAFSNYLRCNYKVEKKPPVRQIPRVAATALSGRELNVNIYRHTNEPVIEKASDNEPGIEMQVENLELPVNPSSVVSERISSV
Experimental: as §1, §2

5-HT7 receptor = 5-HT7 receptor (Homo sapiens, UniProt P34969); assay: Radio-ligand binding assay 5-HT7; settings: 10 μM compound; [3H] LSD 2.5 nM; human rec. CHO cells
Sequence of 5-HT7 receptor (P34969 whole entry): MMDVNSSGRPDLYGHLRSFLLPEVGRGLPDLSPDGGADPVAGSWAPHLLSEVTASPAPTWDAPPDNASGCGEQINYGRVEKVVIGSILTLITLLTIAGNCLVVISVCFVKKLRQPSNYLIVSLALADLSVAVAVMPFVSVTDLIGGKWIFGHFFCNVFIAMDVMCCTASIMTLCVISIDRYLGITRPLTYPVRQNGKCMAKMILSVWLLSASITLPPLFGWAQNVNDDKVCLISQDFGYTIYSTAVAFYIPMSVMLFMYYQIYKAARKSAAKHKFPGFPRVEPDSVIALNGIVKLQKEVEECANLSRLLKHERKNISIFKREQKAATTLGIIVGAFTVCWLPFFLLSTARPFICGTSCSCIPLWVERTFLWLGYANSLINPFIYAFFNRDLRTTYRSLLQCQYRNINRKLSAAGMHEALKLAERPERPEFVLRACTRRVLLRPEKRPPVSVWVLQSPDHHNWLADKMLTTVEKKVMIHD
Experimental: as §1, §2

rat synoviocytes = assay: IL-6 release from LPS-stimulated rat synoviocytes; assay type: cell-based; settings: 72 hours
Experimental: Pannus from the inflamed knee of rats with antigen-induced arthritis (AIA) (see description of this model below; Andersson, S. E et al., (1998), J. Rheumatology 25: 1772-1777) was isolated three to five days after challenge, stored in PBS supplemented with 100 U/ml Penicillin-Streptomycin (PEST, Invitrogen Corporation) and 2.5 μg/ml Fungizone (Amphotericin B, Invitrogen) until it was further processed within a couple of hours. The PBS was discarded and the tissue cut in small pieces followed by digestion in a collagenase solution (400 U/ml; type 1 CLS-1, Worthington) for 3 hours at 37° C., 5% CO2. The suspension was filtered through a nylon mesh (70 μm), washed with tissue culture medium (RPMI-1640 with L-glutamine, Invitrogen, supplemented with 10% fetal bovine serum (FBS) and 100 U/ml PEST and 2.5 μg/ml Fungizone) and centrifuged (257 g). The cells were resuspended in tissue culture medium and seeded in cell culture flasks (T25, TPP). After overnight culture, nonadherent cells were removed by exchanging the medium, the cells were incubated at 37° C., 5% CO2, the medium was exchanged every third day until confluence was reached (7-10 days). The culture consisted of a mixed cell population with the principal constituents being fibroblasts and macrophages (Andersson, S. E. et al. (2000), Eur. J. Pharm. Sci 9: 333-343).
The cells were counted and reseeded at a density of 10000 cells/0.2 ml in 96-well cell culture plates (Nunc). After overnight culture the cells were stimulated with 50 ng/ml Lipopolysaccharide (LPS, E. coli 055:B5, Sigma) with simultaneous addition of 0.1, 1 and 10 μM N-(2-chloro-3,4-dimethoxybenzylideneamino)guanidine and 1 μM of 5-HT2 receptor agonists (triplicates). The cells were incubated for 72 hours after which the supernatants were collected and analyzed for IL-6 (OptEIA™ Set Rat IL-6). The effect of treatment on cell viability was determined using the cell proliferation reagent, WST-1 (Roche Diagnostics).
Inflamed knee joints of rats with antigen-induced arthritis (AIA) were dissected four days after intra-articular challenge with antigen. Freshly isolated pannus tissue was collected in phosphate-buffered saline (PBS) supplemented with 100 U/ml penicillin, streptomycin (PEST, Invitrogen) and 2.5 μg/ml Fungizone (Amphotericin B, Invitrogen), finely minced with a pair of scissors and digested with 400 U/ml collagenase (type 1 CLS-1, Worthington) in RPMI 1640 (Gibco) supplemented with PEST and fungizone (2.5 μg/ml) for 3 hours. The cell suspension was filtered through a 70 μm nylon mesh and the cells collected by centrifugation at 257×g, 10 min. The cells were resuspended in RPMI 1640 supplemented with 10% FBS (Gibco), PEST and fungizone (culture medium), plated in T25 flasks (TPP Cat#90026). After overnight incubation nonadherent cells were removed and the culture medium was replaced every third day until the cells approached confluency (normally achieved within 7-10 days). At near-confluency, the cells were washed with PBS and harvested by trypsination. After washing in PBS the cells were resuspended in culture medium and seeded at 10.000 cells/well/0.2 ml in 96 well plates (Nunc cat#167008). After overnight culture the culture medium was replaced with fresh medium and 50 ng/ml LPS (Sigma, L6529) together with different concentrations of 5-HT, 5-HT2 receptor agonists and/or antagonists and N-(2-chloro-3,4-dimethoxybenzylideneamino)guanidine. The cells were incubated for 72 hours after which the supernatants were collected and analyzed for IL-6 (BD OptEIA™ Set). The effect of treatment on cell viability was determined using the cell proliferation reagent, WST-1 (Roche Diagnostics). In another experiment rat synoviocytes were incubated with 50 ng/ml LPS for 2 or 22 hours were after the levels of 5-HT was analysed in the cell culture medium using a Serotonin ELISA kit (IBL International, RE59121). We also incubated rat synoviocytes with 5-HT (10 μM) and measured the gene expression of 5-HT2B and 5-HT2C.

Sequence of 5-HT1D receptor (P28221 whole entry): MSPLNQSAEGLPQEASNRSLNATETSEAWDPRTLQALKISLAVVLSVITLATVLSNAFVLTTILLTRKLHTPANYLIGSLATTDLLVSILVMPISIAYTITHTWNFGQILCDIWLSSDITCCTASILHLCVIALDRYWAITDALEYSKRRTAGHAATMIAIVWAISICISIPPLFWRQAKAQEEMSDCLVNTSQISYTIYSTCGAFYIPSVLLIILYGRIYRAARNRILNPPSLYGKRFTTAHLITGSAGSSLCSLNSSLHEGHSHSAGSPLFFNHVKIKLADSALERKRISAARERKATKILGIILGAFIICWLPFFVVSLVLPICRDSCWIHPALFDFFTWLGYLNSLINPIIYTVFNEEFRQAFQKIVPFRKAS

Q: What does the source list for `COc1ccc(C=NNC(=N)N)c(Cl)c1OC` [N-(2-chloro-3,4-dimethoxybenzylideneamino)guanidine]?
A: inhibition at 10 µM (5-HT1D receptor): -5.7%; inhibition at 10 µM (5-HT2C receptor): 80%; Ki (5-HT2C receptor; 10 different concentrations, Cheng-Prusoff, FIG. 1): 880 nM; inhibition at 10 µM (5-HT7 receptor): 53%; IL-6 release induced by 5-HT and LPS (rat synoviocytes; 1 μM 5-HT + LPS 50 ng/ml, test substance 0.1, 1 or 10 μM, FIG. 7A): reduces the IL-6 response; IL-6 production induced by BW 723C86 (5-HT2B agonist) and LPS (rat synoviocytes; 1 μM BW 723C86 + LPS 50 ng/ml, compound 0.1, 1, 10 μM, FIG. 4, FIG. 7B): in a dose-dependent way is counteracted; also recorded: reversed the effects; IL-6 production induced by CP 809101 (5-HT2C agonist) and LPS (rat synoviocytes; 1 μM CP 809101 + LPS 50 ng/ml, compound 0.1, 1, 10 μM, FIG. 4, FIG. 7B): is counteracted; also recorded: reversed the effects
